Data: ChEMBL document CHEMBL1921737, “Utilizing G-quadruplex formation to target 8-oxoguanine in telomeric sequences” (Bioorg Med Chem Lett, 2011)
Active and inactive are the calls of the source. The rule behind the calls is not given here.

Legend:
Type in all cases: nucleic-acid assay
[1] = test system: Nucleic Acid; experiment: Induction of telomeric [32P] G-quadruplex DNA 5'-d(GOxodGTTAGGGTTAGGGTTAGGGTTAGGG) adduct formation at 4 uM for 30 mins in presence of Na2IrCl6 by PAGE method
[2] = target: Nucleic Acid; experiment: Binding affinity to telomeric G-quadruplex DNA 5'-d(AGGGTTAGGGTTAGGGTTAGGG) by UV titration method
[3] = test system: Nucleic Acid; experiment: Binding affinity to telomeric G-quadruplex DNA 5'-d(AGGGTTAGGGTTAGGGTTAGGG) assessed as increase in melting temperature at 2 uM by UV thermal denaturation analysis
[4] = test system: Nucleic Acid; experiment: Binding affinity to telomeric G-quadruplex DNA 5'-d(AGGGTTAGGGTTAGGGTTAGGG) at 1 to 10 uM by CD titration method in presence of 100 mM of KCl
[5] = test system: Nucleic Acid; experiment: Binding affinity to telomeric G-quadruplex DNA 5'-d(GOxodGTTAGGGTTAGGGTTAGGGTTAGGG) at 1 to 10 uM by CD titration method in presence of 100 mM of KCl
[6] = test system: Nucleic Acid; experiment: Binding affinity to telomeric G-quadruplex DNA 5'-d(AOxodGGTTAGGGTTAGGGTTAGGGTGTT) at 1 to 10 uM by CD titration method in presence of 100 mM of KCl
[7] = test system: Nucleic Acid; experiment: Binding affinity to telomeric G-quadruplex DNA 5'-d(AGGGTTAGOxodGGTTAGGGTTAGGGTGTT) at 1 to 10 uM by CD titration method in presence of 100 mM of KCl
[8] = test system: Nucleic Acid; experiment: Binding affinity to telomeric G-quadruplex DNA 5'[32P]-d(AGGGTTAGGGTTAOxodGGGGTTAGGGTGTT) at 1 to 10 uM by CD titration method in presence of 100 mM of KCl
[9] = test system: Nucleic Acid; experiment: Binding affinity to telomeric Duplex DNA 5'-d(CGTTCAGAGCCGOxodGTTACGTCCTTCAT) 3'-d(CGAAGTCTGGCCAATGCAGGAAGTA) at 1 to 10 uM by CD titration method in presence of 100 mM of KCl
[10] = test system: Nucleic Acid; experiment: Induction of telomeric [32P] G-quadruplex DNA 5'-d(GOxodGTTAGGGTTAGGGTTAGGGTTAGGG) assessed as adducts decomposition half life at 4 uM for 30 mins in presence of Na2IrCl6 by PAGE method
[11] = test system: Nucleic Acid; experiment: Induction of telomeric [32P] G-quadruplex DNA 5'-d(AOxodGGTTAGGGTTAGGGTTAGGGTGTT) assessed as adducts decomposition half life at 4 uM for 30 mins in presence of Na2IrCl6 by PAGE method
[12] = test system: Nucleic Acid; experiment: Induction of telomeric [32P] G-quadruplex DNA 5'-d(AOxodGGTTAGGGTTAGGGTTAGGGTGTT) adduct formation at 4 uM for 30 mins in presence of Na2IrCl6 by PAGE method
[13] = test system: Nucleic Acid; experiment: Induction of telomeric [32P] G-quadruplex DNA 5'-d(AGGGTTAGOxodGGTTAGGGTTAGGGTGTT) adduct formation at 4 uM for 30 mins in presence of Na2IrCl6 by PAGE method
[14] = test system: Nucleic Acid; experiment: Induction of telomeric [32P] G-quadruplex DNA 5'-d(AGGGTTAGGGTTAOxodGGGGTTAGGGTGTT) adduct formation at 4 uM for 30 mins in presence of Na2IrCl6 by PAGE method
[15] = test system: Nucleic Acid; experiment: Induction of telomeric [32P] Duplex DNA 5'-d(CGTTCAGAGCCGOxodGTTACGTCCTTCAT) 3'-d(CGAAGTCTGGCCAATGCAGGAAGTA) adduct formation at 4 uM for 30 mins in presence of Na2IrCl6 by PAGE method

SMILES	Activity [1]	Kd [2] [nM]	Tm [3] [°C]	Activity [4]	Activity [5]	Activity [6]	Activity [7]	Activity [8]	Activity [9]	T1/2 [10] [h]	T1/2 [11] [h]	Activity [12]	Activity [13]	Activity [14]	Activity [15]
NCCCNCCCCNCCCN1C(=O)c2ccc3c4ccc5c6c(ccc(c7ccc(c2c37)C1=O)c64)C(=O)N(CCCNCCCCNCCCN)C5=O	Active														
NCC(CN)CCC(=O)NCCCN1C(=O)c2ccc3c4ccc5c6c(ccc(c7ccc(c2c37)C1=O)c64)C(=O)N(CCCNC(=O)CCC(CN)CN)C5=O	Active	860	5.2	Active	Active	Active	inactive	Active	Active	36	36	Active	inactive	inactive	Active
